Test results taken from patent publication US9029384B2, “Phosphatidylinositol 3-kinase inhibitors” (Gilead Calistoga LLC, priority 2012, dated 2015).
Like-named read-outs stand apart in the source and are kept apart here.

Key:
PI3Kδ = target: T1, PI3Kδ (Homo sapiens, UniProt O00329); test: Enzymatic activity of PI3K isoforms, TR-FRET assay (PIP3 formation); assay type: biochemical
T1 construct: made in house
Procedure, shortened: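 Recombinant heterodimeric class I PI3K; PIP3 product measured by TR-FRET competition with labelled PIP3 for Eu-GRP-1 PH domain. Reaction 30 min at 25 °C, stopped with 10 mM EDTA.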

[1] = Hepatocyte stability, 0.01% final DMSO, 1 μM substrate (t1/2^b); assay type: in vitro ADME; conditions: human, hepatocytes, TA with 0.01% final DMSO
Description: Alternatively, assay reagents and/or conditions can be modified in determining the inhibitory activities to PI3K isomers. In additional studies, similar assay using TA and 0.01% final DMSO concentration were incubated with 1 million hepatocytes/mL at 1 μM substrate in duplicate. The incubation was carried out at 37° C. with 5% CO2 and saturating humidity.

[2] = Hepatocyte stability, 1% final DMSO, 2 μM substrate (t1/2^a); assay type: in vitro ADME; conditions: human, cryopreserved hepatocytes, TA with 1% final DMSO
Description: This assay was used to evaluate the metabolic stability of test articles (TA) following incubation in cryopreserved hepatocytes by monitoring parent drug disappearance via […]. The TA with 1% final DMSO concentration was incubated with 1 million hepatocytes/ml at 2 μM substrate in duplicate. The incubation was carried out at 37° C. with 5% CO2 and saturating humidity.

basophils = test: Basophil activation in human whole blood (Flow2 CAST kit, CD63 positive cells); assay type: cell-based; conditions: Homo sapiens
Procedure, shortened: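 Human whole blood (K2-EDTA) preincubated 60 minutes at 37° C with compound serial dilutions or DMSO (0.3% final), then stimulated with anti-FcεRI mAb or fMLP and stained for CD63/CCR3. Percent CD63+ among ≥200 CCR3-high basophils by flow cytometry, normalized to stimulated vehicle as 100%. EC50 from four-parameter fits, geometric means in nM, concentrations corrected for reagent dilution.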

[3] = PI3Kδ, TR-FRET, 2×Km ATP, 10 μM PIP2, read-out: IC50
[4] = 1 μM substrate, samples at 0, 1, 3, 6 hours, read-out: human hepatocyte t½^b
[5] = 2 μM substrate, samples at 0, 1, 2, 4 hours, read-out: human hepatocyte t½^a
[6] = basophils activated with anti-FcεRI mAb or fMLP, geometric mean
[7] = human hepatocytes, read-out: t1/2^b
[8] = human hepatocytes, read-out: t1/2^a

T1 sequence (O00329 whole entry, canonical isoform): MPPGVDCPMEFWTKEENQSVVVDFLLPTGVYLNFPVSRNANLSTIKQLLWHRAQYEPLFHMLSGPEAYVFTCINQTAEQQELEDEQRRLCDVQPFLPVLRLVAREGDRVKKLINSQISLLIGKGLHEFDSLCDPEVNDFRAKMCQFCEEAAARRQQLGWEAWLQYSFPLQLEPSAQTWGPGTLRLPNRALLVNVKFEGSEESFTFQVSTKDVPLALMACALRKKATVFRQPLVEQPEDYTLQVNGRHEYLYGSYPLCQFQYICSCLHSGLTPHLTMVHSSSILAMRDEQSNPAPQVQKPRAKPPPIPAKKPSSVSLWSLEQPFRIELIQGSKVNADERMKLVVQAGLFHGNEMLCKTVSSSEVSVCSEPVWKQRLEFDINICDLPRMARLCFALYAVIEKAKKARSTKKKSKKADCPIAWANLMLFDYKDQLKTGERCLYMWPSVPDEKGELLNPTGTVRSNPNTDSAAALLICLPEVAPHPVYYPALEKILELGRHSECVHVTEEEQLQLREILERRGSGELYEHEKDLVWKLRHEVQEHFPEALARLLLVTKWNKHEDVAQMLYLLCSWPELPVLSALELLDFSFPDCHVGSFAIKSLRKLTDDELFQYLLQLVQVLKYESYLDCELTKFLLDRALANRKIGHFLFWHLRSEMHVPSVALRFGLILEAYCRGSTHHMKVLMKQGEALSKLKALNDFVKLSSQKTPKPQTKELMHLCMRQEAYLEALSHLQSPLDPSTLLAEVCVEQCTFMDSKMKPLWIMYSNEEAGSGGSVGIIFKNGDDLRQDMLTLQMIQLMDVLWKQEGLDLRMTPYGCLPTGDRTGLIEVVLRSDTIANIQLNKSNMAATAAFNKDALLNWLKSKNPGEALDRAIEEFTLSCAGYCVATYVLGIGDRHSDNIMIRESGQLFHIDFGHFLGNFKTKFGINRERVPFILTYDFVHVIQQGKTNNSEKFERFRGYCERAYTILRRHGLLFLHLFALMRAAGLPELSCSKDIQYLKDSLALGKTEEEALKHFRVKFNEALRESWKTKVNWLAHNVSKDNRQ
T1 sequence (P27986 whole entry partner, canonical isoform): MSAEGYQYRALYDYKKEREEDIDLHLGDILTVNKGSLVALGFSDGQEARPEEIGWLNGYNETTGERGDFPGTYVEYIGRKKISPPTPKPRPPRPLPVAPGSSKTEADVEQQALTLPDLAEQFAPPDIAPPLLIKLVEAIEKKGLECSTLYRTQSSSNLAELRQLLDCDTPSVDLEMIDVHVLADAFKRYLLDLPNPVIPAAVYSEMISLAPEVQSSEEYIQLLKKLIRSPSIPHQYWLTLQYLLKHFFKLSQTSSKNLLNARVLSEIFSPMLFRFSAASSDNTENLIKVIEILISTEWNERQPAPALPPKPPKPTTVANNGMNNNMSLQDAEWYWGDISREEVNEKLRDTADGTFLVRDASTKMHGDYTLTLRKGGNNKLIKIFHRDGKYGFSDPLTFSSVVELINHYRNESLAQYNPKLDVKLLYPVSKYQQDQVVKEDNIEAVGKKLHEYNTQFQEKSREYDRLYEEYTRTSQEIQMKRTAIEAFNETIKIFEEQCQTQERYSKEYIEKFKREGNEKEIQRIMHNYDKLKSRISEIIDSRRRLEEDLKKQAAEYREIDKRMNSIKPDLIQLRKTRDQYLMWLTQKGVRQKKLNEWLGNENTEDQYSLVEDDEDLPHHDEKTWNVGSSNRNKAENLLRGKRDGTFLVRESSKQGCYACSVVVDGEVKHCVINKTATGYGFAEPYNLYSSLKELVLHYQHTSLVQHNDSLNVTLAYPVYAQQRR

Compound	IC50 (PI3Kδ; [3]) [nM]	half-life at 1 μM [1, 4] [h]	half-life at 2 μM [2, 5] [h]	EC50 (basophils; [6]) [nM]	half-life at 1 μM [1, 7] [h]	half-life at 2 μM [2, 8] [h]	EC50 (basophils; basophil activation) [nM]	IC50 (PI3Kδ) [nM]
CC(Nc1nc(N)nc(N)c1C(N)=O)c1nc2cccc(Cl)c2c(=O)n1-c1cc(F)cc(F)c1 (single isomer, unassigned) [Compound 90a]	1 to 10	3 to 6	> 10	1 to 10				
CC(Nc1nc(N)nc(N)c1C#N)c1nc2cccc(F)c2c(=O)n1-c1cccc(C(F)F)c1 (single isomer, unassigned) [Compound 97a]	1 to 10	3 to 6	> 10	1 to 10				
CC(Nc1nc(N)nc(N)c1C#N)c1nc2c(C#N)cccc2c(=O)n1-c1cc(F)cc(F)c1 (single isomer, unassigned) [Compound 101a]	1 to 10	3 to 6	> 10	1 to 10				
CC(Nc1nc(N)nc(N)c1C#N)c1nc2cccc(Cl)c2c(=O)n1-c1cccc(C(F)F)c1 (single isomer, unassigned) [Compound 106a]	< 1	1 to 3	> 10	1 to 10				
CC(Nc1nc(N)nc(N)c1C#N)c1nc2cccc(Cl)c2c(=O)n1-c1cccc(F)c1 (single isomer, unassigned) [Compound 108a]	< 1	3 to 6	> 10	1 to 10				
CC(Nc1nc(N)nc(N)c1C#N)c1nc2c(C#N)cccc2c(=O)n1-c1ccccc1 (single isomer, unassigned) [Compound 122a]	1 to 10	> 10	> 10	1 to 10				
C[C@H](Nc1nc(N)nc(N)c1C#N)c1nc2cccc(Cl)c2c(=O)n1-c1cc(F)cc(F)c1 [Compound 1a, 2,4-diamino-6-((1-(5-chloro-3-(3,5-difluorophenyl)-4-oxo-3,4-dihydroquinazolin-2-yl)ethyl)amino)pyrimidine-5-carbonitrile]	< 1	1 to 3	6 to 10	< 1	> 1	> 9	< 0.5	
CC[C@H](Nc1nc(N)nc(N)c1C#N)c1nc2cccc(F)c2c(=O)n1-c1cc(F)cc(F)c1 [Compound 77a, (S)-2,4-diamino-6-((1-(3-(3,5-difluorophenyl)-5-fluoro-4-oxo-3,4-dihydroquinazolin-2-yl)propyl)amino)pyrimidine-5-carbonitrile]	1 to 10	1 to 3	> 10	1 to 10				
C[C@H](Nc1ncnc(N)c1C#N)c1nc2cccc(Cl)c2c(=O)n1-c1ccccc1 [Y, reference compound]			< 1	10 to 50	< 2	< 2	> 15	< 1
C[C@H](Nc1ncnc(N)c1C#N)c1nc2cccc(Cl)c2c(=O)n1-c1cc(F)cc(F)c1 [Z, reference compound]			1 to 3	10 to 50	< 2	< 3	> 10	1 to 10
